Source: US12268632B2, “Self-retaining implantable drug delivery device” (GoldenBiotech, LLC, priority 2018, dated 2025)

Tests used:
Format in all cases: physicochemical
[1] = Physical appearance and durometer mechanical properties of drug-loaded silicone polymer matrix test samples
Text: To test the loading capacity of a silicone elastomer polymer matrix for a prostaglandin analogue, polymer matrix with different amounts and types of a prostaglandin analogue were made and the physical and mechanical properties of the resulting polymerized drug-loaded matrix were characterized (Tables 1-3). These polymer matrix test samples were made by mixing together a prostaglandin analogue, a liquid cyclic vinyl siloxane elastomer, a crosslinker, and a catalyst using a high-speed mixer and then heated the capped container at 70° C. for 24 hours to cure the mixture. A filler, such as a fumed silica, was also used to provide sufficient mechanical strength to the polymerized matrix. In addition, an inhibitor was used to slow the crosslinking reaction to a workable rate. The resulting thin-disc-shaped drug-loaded polymer matrix was allowed to cool to room temperature and then placed in 4° C. for 24 hours to increase stiffness of the material. The physical appearance of each drug-loaded polymer matrix test sample was examined visually and its mechanical properties analyzed using a durometer.

[2] = Higuchi equation analysis of drug release (cumulative release vs square root of time); conditions: coated drug-loaded silicone polymer matrices
Description: In order to ascertain whether the mechanism of drug release was based on diffusion, data obtained from various coated silicone polymer matrices were analyzed using the Higuchi equation. This analysis determines the degree of proportionality between the cumulative amount of drug released and the square root of time (SQRT). […] As exemplified FIG. 10, data is plotted as the square root of time taken on the x-axis and the cumulative percentage of drug release on the y-axis.

[3] = Korsmeyer-Peppas analysis of drug release (log percent released vs log time)
Description: To confirm the results obtained based on the Higuchi equation analysis, the data above was also analyzed using the Korsmeyer-Peppas plot, which evaluates the mechanism of drug release by plotting the log of percent drug released over the log time in hours. If n equals 0.45, then Fickian diffusion is indicated for a cylinder (0.42 for cylinder of low aspect ratio). […] As exemplified FIG. 11, data is plotted as the log of cumulative percent drug released on the y-axis and the log time in hours on the x-axis.

[4] = Chemical stability of prostaglandin analogues in PBS, RPHPLC; conditions: PBS at pH 4, 7 and 10 and at 4° C., 33° C. and 50° C.
Description: The chemical stability of prostaglandin analogues was also examined. In these experiments, a prostaglandin analogue was incubated in phospho-buffered saline (PBS) at pH 4, 7 and 10 and at 4° C., 33° C. and 50° C. representing long term storage, eye temperature and accelerate temperature conditions respectively. Analyses were performed by RPHPLC as described in Example 2, noting any hydrolysis products formed. […] This stability is most likely due to the amide linkage in bimatoprost which is much more hydrolytically stable than the ester linkage in latanoprost and travoprost.

[5] = In vitro drug release from drug-loaded silicone polymer matrix in PBS pH 7.4 at 37° C., RPHPLC; conditions: uncoated silicone polymer matrix loaded with 10% latanoprost, FIG. 5
Description: To test the controlled release properties of the disclosed drug-loaded silicone polymer matrices, the effects of a coating were examined. In these experiments, test samples were made as described in Example 1 to produce thin-disc-shaped drug-loaded polymer matrix. From this material, test samples were prepared by 1) cutting out rectangular polygons of about 3 mm length, about 1 mm width and about 1 mm height were cut from polymerized drug-loaded material; or 2) cutting out cylindrical plugs of about 3 mm length and having a diameter of about 0.5 mm to about 1 mm. The weight of the test samples was in the range of about 0.1 mg to about 4 mg.
These cut test samples were then coated using one of three procedures. […]
To examine the drug release properties of a test sample, each sample was placed in 2 mL Eppendorf tube containing 1.5 mL of Phosphate Buffered Saline, pH 7.4 (PBS). […] An aliquot of the removed PBS was then analyzed by reversed phase HPLC (RPHPLC) to determine the amount of drug released from the test sample during the incubation period. […] Peak detection and quantitation were determined by establishing a calibration curve using known amounts of each drug tested and the amount of drug present in the test sample aliquot interpolated from this calibration curve using ChemStation software.

[6] = Release from post-loaded travoprost section of the implantable device; conditions: post loaded 3 mm section, uncoated, at 38 days
Description: A central section of a self-retaining implantable drug delivery device disclosed herein was loaded with travoprost by cutting a 3 mm section of the device and then placed into 0.200 ml of hexanes for 3 hours. Following this period, the self-retaining implantable drug delivery device was placed immediately into 0.050 mL of a travoprost stock solution 25 mg/mL in ethanol and allowed to stand overnight. The following day, this section was washed sequentially by dipping into a water bath, followed by a 10% acetonitrile bath. It was dried at 80 C and set to release the following day. The section was allowed to release over a period of 38 days. The loading was determined to be approximately 13 mcg. […] This release profile is predicted by the Higuchi mechanism. This type of loading procedure we term post loading. The loaded section is coated with a poly(p-xylylene) polymer and two tiny holes are placed completely through the section. The section is then molded together with the two flanking sections of the stent to form the final product. The release from this modified stent follows a near zero order release in vitro and in vivo in preclinical animal models and clinical studies.

[7] = Drug Loading 2.5%, coated drug-loaded silicone polymer matrices
[8] = Drug Loading 5%, coated drug-loaded silicone polymer matrices
[9] = Drug Loading 10%, coated drug-loaded silicone polymer matrices
[10] = Drug Loading 15%, coated drug-loaded silicone polymer matrices
[11] = Drug Loading 20%, coated drug-loaded silicone polymer matrices

| Compound | amount that would not produce a satisfactory drug-loaded silicone polymer matrix [1] | physical appearance of silicone polymer matrix ([1]; 20% test sample) | Average Linear Regression r^2 Value (Higuchi) ([2]; Drug Loading 1%) | Average Linear Regression r^2 Value (Higuchi) ([2]; Drug Loading 2.5%) | Average Linear Regression r^2 Value (Higuchi) ([2]; Drug Loading 5%) | Average Linear Regression r^2 Value (Higuchi) ([2]; Drug Loading 10%) | Average Linear Regression r^2 Value (Higuchi) ([2]; Drug Loading 15%) | Average Linear Regression r^2 Value (Higuchi) ([2]; Drug Loading 20%) | Average n Values (Korsmeyer-Peppas) ([3]; Drug Loading 1%, coated drug-loaded silicone polymer matrices) | Average n Values (Korsmeyer-Peppas) [3, 7] | Average n Values (Korsmeyer-Peppas) [3, 8] | Average n Values (Korsmeyer-Peppas) [3, 9] | Average n Values (Korsmeyer-Peppas) [3, 10] | Average n Values (Korsmeyer-Peppas) [3, 11] | Average n Values (Korsmeyer-Peppas) ([3]; Mean over drug loadings) | chemical stability (hydrolysis) [4] | physical appearance of silicone polymer matrix ([1]; 25% test sample) | release profile [5] | physical appearance of silicone polymer matrix ([1]; 15% and 20% test samples) | amount released [6] |
| --- | --- | --- | --- | --- | --- | --- | --- | --- | --- | --- | --- | --- | --- | --- | --- | --- | --- | --- | --- | --- |
| CCNC(=O)CCC/C=C\C[C@@H]1[C@@H](/C=C/[C@@H](O)CCc2ccccc2)[C@H](O)C[C@@H]1O [Bimatoprost, bimatoprost] | ≥ 20% | brittle and contained clumps of unincorporated components from the mixture | 0.992 | 0.995 | 0.997 | 0.988 | 0.994 | 0.972 | 0.326± | 0.372± | 0.411± | 0.377± | 0.380± | 0.601± | 0.37 ± 0.08 | the most stable | – | – | – | – |
| CC(C)OC(=O)CCC/C=C\C[C@@H]1[C@@H](CC[C@@H](O)CCc2ccccc2)[C@H](O)C[C@@H]1O [Latanoprost, latanoprost] | ≥ 25% | – | – | – | 0.964 | 0.983 | 0.990 | 0.990 | – | – | 0.504± | 0.501± | 0.712± | 1.200± | 0.57 ± 0.16 | travoprost was significantly more stable than latanoprost | exhibited more elasticity but had a surface with tacky attributes and a consistency that was not fully homogeneous | rapid release of the drug over the first five days, which then tapers off and by day 12 shows no further significant release | – | – |
| CC(C)OC(=O)CCC/C=C\C[C@@H]1[C@@H](/C=C/[C@@H](O)COc2cccc(C(F)(F)F)c2)[C@H](O)C[C@@H]1O [Travoprost, travoprost] | ≥ 15% | – | – | 0.976 | 0.972 | 0.941 | – | – | – | 0.543± | 0.507± | 0.453± | – | – | 0.50 ± 0.09 | had the requisite stability | – | – | exhibited more elasticity but had surfaces with tacky attributes and a consistency that was not fully homogeneous | 99% |
